From ChEMBL document CHEMBL1201862, “PubChem BioAssay data set” (2004)
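Five compound concentrations were applied to cells in 96-well plates for 48 hours; endpoints were derived by simple linear interpolation of the resulting dose-response curve. GI50: concentration for 50% inhibition of growth.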 Calls of active or inactive are those of the source. Cut-off read from the data, not from the text of the source: active = GI50 up to about 1.1 µM and inactive = higher. Where a SMILES comes first, the peptide text is derived from it. Non-standard residues stand in square brackets, D forms with d. Residues, ends and D or L forms follow the SMILES beside them. The star is where a group is joined. *: point of attachment. Bn2Val = CC(C)[C@@H](C(=O)*)N(Cc1ccccc1)Cc1ccccc1; NH(4-Cl-benzyl) = Clc1ccc(CN*)cc1; NMeV = CN[C@H](C(=O)O)C(C)C; dNMeA = CN[C@H](C)C(=O)O; Boc = CC(C)(C)OC(=O)*

Key:
Assay in all cases: NCI-60 cell line screen, 48 h
[1] = test system: 786-0
[2] = test system: ACHN
[3] = test system: BT-549
[4] = test system: CAKI-1
[5] = test system: HCC 2998
[6] = test system: HCT-116
[7] = test system: HOP-62
[8] = test system: HT-29
[9] = test system: Hs-578T
[10] = test system: IGROV-1
[11] = test system: KM12
[12] = test system: NCI-H460
[13] = test system: OVCAR-5
[14] = test system: SF-539
[15] = test system: SK-MEL-28
[16] = test system: SR
[17] = test system: TK-10
[18] = test system: MDA-MB-231
[19] = test system: Malme-3M

SMILES | GI50 [1] | GI50 [2] | GI50 [3] | GI50 [4] | GI50 [5] | GI50 [6] | GI50 [7] | GI50 [8] | GI50 [9] | GI50 [10] | GI50 [11] | GI50 [12] | GI50 [13] | GI50 [14] | GI50 [15] | GI50 [16] | GI50 [17] | GI50 [18] | GI50 [19]
CCOC(=O)c1[nH]cc(C)c1-c1ccn(-c2ccccc2)c1 | 53.2 µM (inactive) | 50.2 µM (inactive) | 43.4 µM (inactive) | > 100 µM (inactive) | 41.9 µM (inactive) | 42.7 µM (inactive) | > 100 µM (inactive) | 29.6 µM (inactive) | 25.9 µM (inactive) | 14.9 µM (inactive) | 19.6 µM (inactive) | 38.6 µM (inactive) | > 100 µM (inactive) | > 100 µM (inactive) | 96.2 µM (inactive) | 15.6 µM (inactive) | 27.5 µM (inactive) | – | –
COC(=O)c1cn(CCCC(=O)O)nn1 | > 100 µM (inactive) | > 100 µM (inactive) | > 100 µM (inactive) | > 100 µM (inactive) | > 100 µM (inactive) | > 100 µM (inactive) | > 100 µM (inactive) | > 100 µM (inactive) | > 100 µM (inactive) | > 100 µM (inactive) | > 100 µM (inactive) | > 100 µM (inactive) | – | > 100 µM (inactive) | > 100 µM (inactive) | – | > 100 µM (inactive) | > 100 µM (inactive) | > 100 µM (inactive)
N#CCCN(CCCN(C(=O)N(c1ccccc1)c1ccccc1)c1ccccc1)C(=O)Nc1ccccc1 | > 100 µM (inactive) | 93.3 µM (inactive) | > 100 µM (inactive) | > 100 µM (inactive) | > 100 µM (inactive) | 29.6 µM (inactive) | > 100 µM (inactive) | 32.3 µM (inactive) | 67.3 µM (inactive) | – | 41.6 µM (inactive) | 40 µM (inactive) | > 100 µM (inactive) | > 100 µM (inactive) | > 100 µM (inactive) | – | > 100 µM (inactive) | > 100 µM (inactive) | > 100 µM (inactive)
Oc1ccc(Cl)cc1/C=N/c1cnc2ccccc2c1 | 37.9 µM (inactive) | > 57.1 µM (inactive) | 22.3 µM (inactive) | > 100 µM (inactive) | – | 11.3 µM (inactive) | 35.5 µM (inactive) | 36.6 µM (inactive) | > 68.9 µM (inactive) | 16 µM (inactive) | 30.6 µM (inactive) | 33.7 µM (inactive) | > 100 µM (inactive) | 13.4 µM (inactive) | > 68.9 µM (inactive) | 18.8 µM (inactive) | > 100 µM (inactive) | 32.6 µM (inactive) | > 70.6 µM (inactive)
CCN(CC)c1ccc2cc(C(=O)Nc3ccccc3OC)c(=N)oc2c1 | 14.7 µM (inactive) | 11.3 µM (inactive) | 26.6 µM (inactive) | 23.7 µM (inactive) | 21.8 µM (inactive) | 15.4 µM (inactive) | 12 µM (inactive) | 12.9 µM (inactive) | 22.1 µM (inactive) | 7.55 µM (inactive) | 33.1 µM (inactive) | 5.16 µM (inactive) | 44.3 µM (inactive) | 46.6 µM (inactive) | 32.9 µM (inactive) | 5.16 µM (inactive) | – | – | 32.3 µM (inactive)
CCN1C(NN)=NS(=O)(=O)c2ccccc21 | > 100 µM (inactive) | > 100 µM (inactive) | > 100 µM (inactive) | > 100 µM (inactive) | > 100 µM (inactive) | > 100 µM (inactive) | > 100 µM (inactive) | > 100 µM (inactive) | > 100 µM (inactive) | > 100 µM (inactive) | > 100 µM (inactive) | > 100 µM (inactive) | > 100 µM (inactive) | > 100 µM (inactive) | > 100 µM (inactive) | > 100 µM (inactive) | > 100 µM (inactive) | > 100 µM (inactive) | –
CCOC(=O)Oc1cc2c(ccn2C)c2c1c1ccccc1n2C(=O)OCC | > 100 µM (inactive) | > 100 µM (inactive) | > 100 µM (inactive) | > 100 µM (inactive) | – | > 100 µM (inactive) | > 100 µM (inactive) | > 100 µM (inactive) | > 100 µM (inactive) | > 100 µM (inactive) | > 100 µM (inactive) | > 100 µM (inactive) | > 100 µM (inactive) | > 100 µM (inactive) | > 100 µM (inactive) | > 100 µM (inactive) | > 100 µM (inactive) | > 100 µM (inactive) | 76.7 µM (inactive)
Cc1c(/N=C/C=C/c2ccccc2)c(=O)n(-c2ccccc2)n1C | – | 29.8 µM (inactive) | 22.8 µM (inactive) | 34.7 µM (inactive) | – | 13.7 µM (inactive) | 33.3 µM (inactive) | 27.5 µM (inactive) | 23.1 µM (inactive) | 33.7 µM (inactive) | 21.3 µM (inactive) | 87.5 µM (inactive) | 58.9 µM (inactive) | 23 µM (inactive) | 14.6 µM (inactive) | – | 30.2 µM (inactive) | 34.8 µM (inactive) | 25.4 µM (inactive)
C[N+](C)(CCCCCC[N+](C)(C)CCCN1C(=O)c2cccc3cccc(c23)C1=O)CCCN1C(=O)c2cccc3cccc(c23)C1=O | – | > 100 µM (inactive) | > 100 µM (inactive) | 78 µM (inactive) | – | 72.8 µM (inactive) | – | > 100 µM (inactive) | > 100 µM (inactive) | > 100 µM (inactive) | > 100 µM (inactive) | > 100 µM (inactive) | > 100 µM (inactive) | > 100 µM (inactive) | > 100 µM (inactive) | > 100 µM (inactive) | > 100 µM (inactive) | 56.2 µM (inactive) | > 100 µM (inactive)
CCC(C)C(=O)OC1C(=O)OC2CC3C(C)=CC(=O)C(O)C3(C)C3C4(O)OCC23C1C(C)C4O (stereo not given) | < 0.0166 µM (active) | < 0.0171 µM (active) | < 0.017 µM (active) | 0.115 µM (active) | < 0.0262 µM (active) | < 0.01 µM (active) | < 0.019 µM (active) | – | < 0.0202 µM (active) | < 0.01 µM (active) | < 0.0107 µM (active) | < 0.014 µM (active) | 0.0776 µM (active) | < 0.01 µM (active) | < 0.0164 µM (active) | – | < 0.0188 µM (active) | 0.032 µM (active) | < 0.0104 µM (active)
Cc1nn(C(=O)c2ccccc2O)c2c1C(c1ccco1)SC(=N)N2 (stereo not given) | 7.01 µM (inactive) | 3.42 µM (inactive) | > 10 µM (inactive) | 3.48 µM (inactive) | – | 3.34 µM (inactive) | 2.58 µM (inactive) | > 10 µM (inactive) | 6.92 µM (inactive) | 4.42 µM (inactive) | 5.47 µM (inactive) | 4.32 µM (inactive) | > 10 µM (inactive) | 4.28 µM (inactive) | 6.41 µM (inactive) | 4.9 µM (inactive) | > 10 µM (inactive) | 5.79 µM (inactive) | > 10 µM (inactive)
O=C(NC1CCN(Cc2ccccc2)CC1)c1ccccc1I | 26.1 µM (inactive) | 49.3 µM (inactive) | 51.1 µM (inactive) | 53.5 µM (inactive) | – | 16.7 µM (inactive) | 19.8 µM (inactive) | 16.6 µM (inactive) | 17.9 µM (inactive) | 42.6 µM (inactive) | 17.3 µM (inactive) | 24.7 µM (inactive) | 22.5 µM (inactive) | 23.2 µM (inactive) | 17.8 µM (inactive) | 25.6 µM (inactive) | 21.6 µM (inactive) | 24.2 µM (inactive) | 17.5 µM (inactive)
O=C1CC(n2ccnc2)c2c(Cl)sc(Cl)c21 (stereo not given) | 6.79 µM (inactive) | 18.1 µM (inactive) | 15.3 µM (inactive) | 19.5 µM (inactive) | – | 14.2 µM (inactive) | 18.7 µM (inactive) | 19.8 µM (inactive) | 30.4 µM (inactive) | 12.7 µM (inactive) | 15.6 µM (inactive) | 26 µM (inactive) | 22.5 µM (inactive) | 17.2 µM (inactive) | 23.7 µM (inactive) | 2.92 µM (inactive) | 20.2 µM (inactive) | 18.9 µM (inactive) | 17.4 µM (inactive)
CCOC(=O)C(CC(C)C)NC(=O)C(Cc1ccccc1)NC(=O)CNC(=O)OC(C)(C)C (stereo not drawn) (Boc-Gly-Phe-Leu-OEt; configuration not given here) | 20.9 µM (inactive) | 17.1 µM (inactive) | 27.7 µM (inactive) | 0.145 µM (active) | 19.7 µM (inactive) | 17.9 µM (inactive) | 28.2 µM (inactive) | 18.1 µM (inactive) | 31.8 µM (inactive) | 21.6 µM (inactive) | 18.5 µM (inactive) | 12.1 µM (inactive) | – | 13.5 µM (inactive) | 16.6 µM (inactive) | 15.8 µM (inactive) | 31 µM (inactive) | – | 19.9 µM (inactive)
CC(C)[C@H](NC(=O)[C@H](C(C)C)N(Cc1ccccc1)Cc1ccccc1)C(=O)N(C)[C@H](C(=O)N1CCC[C@H]1C(=O)N(C)[C@H](C)C(=O)NCc1ccc(Cl)cc1)C(C)C (Bn2Val-V[NMeV]P[dNMeA]-{NH(4-Cl-benzyl)}) | 3.26 µM (inactive) | 2.98 µM (inactive) | 3.18 µM (inactive) | 5.94 µM (inactive) | – | 3.02 µM (inactive) | 4.38 µM (inactive) | 1.74 µM (inactive) | 1.05 µM (active) | 2.69 µM (inactive) | 3.38 µM (inactive) | 3.96 µM (inactive) | 4.9 µM (inactive) | 3.88 µM (inactive) | 4.98 µM (inactive) | 3.85 µM (inactive) | 5.87 µM (inactive) | 2.65 µM (inactive) | 10.3 µM (inactive)
